Experimental data: patent publication US20050282755A1, “Compositions having antimicrobial activity and uses thereof” (priority 2004, published 2005)
Values after ≈ are worked out from the molar mass of the structure shown. Non-standard residues stand in square brackets, D forms with d. Residues, ends and D or L forms follow the SMILES beside them. *: point of attachment. Palmitoyl = CCCCCCCCCCCCCCCC(=O)*; Lauroyl = CCCCCCCCCCCC(=O)*; Decanoyl = CCCCCCCCCC(=O)*; Octanoyl = CCCCCCCC(=O)*

What was measured:
Type in all cases: cell-based
[1] = tested on: Staphylococcus aureus ATCC 29213; test: MIC, NCCLS M7-A6 broth microdilution, cation-adjusted Mueller Hinton broth (Table 9, no superscript); conditions: ATCC 29213
How it was run: (§1)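 MIC, read as the lowest peptide concentration without visible growth compared with peptide-free wells, after overnight incubation at 37° C. Wells held cation-adjusted Mueller Hinton broth and a final inoculum of 5×10^5 to 1×10^6 CFU/mL from log-phase culture.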

[2] = tested on: Escherichia coli ATCC 25922; test: MIC, NCCLS M7-A6 broth microdilution (Table 9, no superscript); conditions: ATCC 25922
How it was run: as §1

[3] = tested on: Pseudomonas aeruginosa ATCC 27853; test: as above; conditions: ATCC 27853
How it was run: as §1

[4] = tested on: Salmonella dublin (Lane); test: as above
How it was run: as §1

[5] = tested on: Staphylococcus epidermidis ATCC 12228; test: as above; conditions: ATCC 12228
How it was run: as §1

[6] = tested on: Propionibacterium acnes ATCC 6919; test: MIC, agar dilution method NCCLS M11-A6, Brucella agar, anaerobic (Table 9, superscript c); conditions: ATCC 6919
How it was run: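 Agar dilution per NCCLS M11-A6 on Brucella agar; final inoculum 1.5×10^8 CFU/milliliter applied to plates, incubated 48-96 hours at 37° C. under anaerobic (GasPak) conditions. MIC = lowest peptide concentration with no colony growth.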

[7] = tested on: Candida albicans ATCC 18804; test: MIC in yeasts, NCCLS M27-A2 broth microdilution, RPMI 1640 (Table 9, letter e); conditions: ATCC 18804
How it was run: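 Broth microdilution per NCCLS M27-A2 in RPMI 1640 with glutamine and phenol red, final inoculum 0.5×10^3–2.5×10^3 CFU/milliliter. Incubated 24 to 48 hours at 37° C; MIC is the lowest peptide concentration with no visible growth.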

| SMILES | MIC S. aureus [1] [µg/mL] | MIC E. coli [2] [µg/mL] | MIC P. aeruginosa [3] [µg/mL] | MIC S. dublin [4] [µg/mL] | MIC S. epidermidis [5] [µg/mL] | MIC P. acnes [6] [c ug/mL] | MIC C. albicans [7] [e ug/mL] |
| --- | --- | --- | --- | --- | --- | --- | --- |
| CCCCCCCCCCCC(=O)NCCCC[C@@H](NC(=O)[C@@H](CCCNC(=N)N)NC(=O)[C@@H](CC(C)C)NC(=O)[C@@H](Cc1ccccc1)NC(=O)[C@@H](CC(N)=O)NC(=O)[C@@H](CCCNC(=N)N)NC(=O)[C@@H](C)NC(=O)[C@H](NC(=O)[C@@H](CC(=O)O)NC(=O)[C@@H](CCCNC(=N)N)NC(=O)[C@@H](Cc1c[nH]c2ccccc12)NC(=O)[C@@H](CCCNC(=N)N)NC(=O)[C@@H](CO)NC(=O)[C@H](N)CCCNC(=N)N)C(C)C)C(N)=O [Peptide 195, H2N-rsrwrdvarnflrk(Lauryl)-NH2] (H-[dR][dS][dR][dW][dR][dD][dV][dA][dR][dN][dF][dL][dR][dK](Lauroyl)-NH2) | 2 (≈ 0.98 µM) | 4 (≈ 1.96 µM) | 4 (≈ 1.96 µM) | 4 (≈ 1.96 µM) | 1 (≈ 0.49 µM) | 8 | 8 |
| CCCCCCCC(=O)NCCCC[C@@H](NC(=O)[C@@H](CCCNC(=N)N)NC(=O)[C@@H](CCSC)NC(=O)[C@@H](Cc1ccccc1)NC(=O)[C@@H](CC(N)=O)NC(=O)[C@@H](CCCNC(=N)N)NC(=O)[C@@H](C)NC(=O)[C@H](NC(=O)[C@@H](CC(=O)O)NC(=O)[C@@H](CCCNC(=N)N)NC(=O)[C@@H](Cc1c[nH]c2ccccc12)NC(=O)[C@@H](CCCNC(=N)N)NC(=O)[C@@H](CO)NC(=O)[C@H](N)CCCNC(=N)N)C(C)C)C(N)=O [Peptide 198, H2N-rsrwrdvarnfmrk(Octanyl)-NH2] (H-[dR][dS][dR][dW][dR][dD][dV][dA][dR][dN][dF][dM][dR][dK](Octanoyl)-NH2) | 16 (≈ 7.99 µM) | 16 (≈ 7.99 µM) | 64 (≈ 31.9 µM) | 32 (≈ 16 µM) | 4 (≈ 2 µM) | 16 | 64 |
| CCCCCCCCCC(=O)NCCCC[C@@H](NC(=O)[C@@H](CCCNC(=N)N)NC(=O)[C@@H](CCSC)NC(=O)[C@@H](Cc1ccccc1)NC(=O)[C@@H](CC(N)=O)NC(=O)[C@@H](CCCNC(=N)N)NC(=O)[C@@H](C)NC(=O)[C@H](NC(=O)[C@@H](CC(=O)O)NC(=O)[C@@H](CCCNC(=N)N)NC(=O)[C@@H](Cc1c[nH]c2ccccc12)NC(=O)[C@@H](CCCNC(=N)N)NC(=O)[C@@H](CO)NC(=O)[C@H](N)CCCNC(=N)N)C(C)C)C(N)=O [Peptide 199, H2N-rsrwrdvarnfmrk(Decanyl)-NH2] (H-[dR][dS][dR][dW][dR][dD][dV][dA][dR][dN][dF][dM][dR][dK](Decanoyl)-NH2) | 2 (≈ 0.985 µM) | 4 (≈ 1.97 µM) | 4 (≈ 1.97 µM) | 8 (≈ 3.94 µM) | 1 (≈ 0.492 µM) | 8 | 32 |
| CCCCCCCCCCCC(=O)NCCCC[C@@H](NC(=O)[C@@H](CCCNC(=N)N)NC(=O)[C@@H](CCSC)NC(=O)[C@@H](Cc1ccccc1)NC(=O)[C@@H](CC(N)=O)NC(=O)[C@@H](CCCNC(=N)N)NC(=O)[C@@H](C)NC(=O)[C@H](NC(=O)[C@@H](CC(=O)O)NC(=O)[C@@H](CCCNC(=N)N)NC(=O)[C@@H](Cc1c[nH]c2ccccc12)NC(=O)[C@@H](CCCNC(=N)N)NC(=O)[C@@H](CO)NC(=O)[C@H](N)CCCNC(=N)N)C(C)C)C(N)=O [Peptide 200, H2N-rsrwrdvarnfmrk(Lauryl)-NH2] (H-[dR][dS][dR][dW][dR][dD][dV][dA][dR][dN][dF][dM][dR][dK](Lauroyl)-NH2) | 2 (≈ 0.971 µM) | 4 (≈ 1.94 µM) | 4 (≈ 1.94 µM) | 8 (≈ 3.88 µM) | 1 (≈ 0.486 µM) | 8 | 8 |
| CCCCCCCCCCCCCCCC(=O)NCCCC[C@@H](NC(=O)[C@@H](CCCNC(=N)N)NC(=O)[C@@H](CCSC)NC(=O)[C@@H](Cc1ccccc1)NC(=O)[C@@H](CC(N)=O)NC(=O)[C@@H](CCCNC(=N)N)NC(=O)[C@@H](C)NC(=O)[C@H](NC(=O)[C@@H](CC(=O)O)NC(=O)[C@@H](CCCNC(=N)N)NC(=O)[C@@H](Cc1c[nH]c2ccccc12)NC(=O)[C@@H](CCCNC(=N)N)NC(=O)[C@@H](CO)NC(=O)[C@H](N)CCCNC(=N)N)C(C)C)C(N)=O [Peptide 201, H2N-rsrwrdvarnfmrk(Palmitoyl)-NH2] (H-[dR][dS][dR][dW][dR][dD][dV][dA][dR][dN][dF][dM][dR][dK](Palmitoyl)-NH2) | 16 (≈ 7.56 µM) | 32 (≈ 15.1 µM) | >64 | 16 (≈ 7.56 µM) | 2 (≈ 0.945 µM) | 16 | 2 |
| CCCCCCCCCCCCCCCC(=O)N[C@H](CCCNC(=N)N)C(=O)N[C@H](CO)C(=O)N[C@H](CCCNC(=N)N)C(=O)N[C@H](Cc1c[nH]c2ccccc12)C(=O)N[C@H](CCCNC(=N)N)C(=O)N[C@H](CC(=O)O)C(=O)N[C@@H](C(=O)N[C@H](C)C(=O)N[C@H](CCCNC(=N)N)C(=O)N[C@H](CC(N)=O)C(=O)N[C@H](Cc1ccccc1)C(=O)N[C@H](CCSC)C(=O)N[C@H](CCCNC(=N)N)C(N)=O)C(C)C [Peptide 209, Palmitoyl-rsrwrdvarnfmr-NH2] (Palmitoyl-[dR][dS][dR][dW][dR][dD][dV][dA][dR][dN][dF][dM][dR]-NH2) | 16 (≈ 8.05 µM) | >64 | >64 | 32 (≈ 16.1 µM) | 8 (≈ 4.03 µM) | 32 | 8 |
| CCCCCCCCCCCC(=O)N[C@H](CCCNC(=N)N)C(=O)N[C@H](CO)C(=O)N[C@H](CCCNC(=N)N)C(=O)N[C@H](Cc1c[nH]c2ccccc12)C(=O)N[C@H](CCCNC(=N)N)C(=O)N[C@H](CCC(=O)O)C(=O)N[C@@H](C(=O)N[C@H](C)C(=O)N[C@H](CCCNC(=N)N)C(=O)N[C@H](CC(N)=O)C(=O)N[C@H](Cc1ccccc1)C(=O)N[C@H](CC(C)C)C(=O)N[C@H](CCCNC(=N)N)C(N)=O)C(C)C [Peptide 221, Lauryl-rsrwrevarnflr-NH2] (Lauroyl-[dR][dS][dR][dW][dR][dE][dV][dA][dR][dN][dF][dL][dR]-NH2) | 4 (≈ 2.08 µM) | 8 (≈ 4.15 µM) | 8 (≈ 4.15 µM) | 8 (≈ 4.15 µM) | 2 (≈ 1.04 µM) | 32 | 2 |
| CCCCCCCCCCCC(=O)N[C@H](CCCNC(=N)N)C(=O)N[C@H](CCCNC(=N)N)C(=O)N[C@H](CCCNC(=N)N)C(=O)N[C@H](Cc1c[nH]c2ccccc12)C(=O)N[C@H](CCCNC(=N)N)C(=O)N[C@H](CCCNC(=N)N)C(=O)N[C@@H](C(=O)N[C@H](C)C(=O)N[C@H](CCCNC(=N)N)C(=O)N[C@H](CCCNC(=N)N)C(=O)N[C@H](Cc1ccccc1)C(=O)N[C@H](CC(C)C)C(=O)N[C@H](CCCNC(=N)N)C(N)=O)C(C)C [Peptide 222, Lauryl-rrrwrrvarrflr-NH2] (Lauroyl-[dR][dR][dR][dW][dR][dR][dV][dA][dR][dR][dF][dL][dR]-NH2) | 4 (≈ 1.94 µM) | 16 (≈ 7.75 µM) | 8 (≈ 3.87 µM) | >64 | 1 (≈ 0.484 µM) | >64 | 2 |
| CCCCCCCCCCCC(=O)N[C@H](CCCNC(=N)N)C(=O)N[C@H](CCCCN)C(=O)N[C@H](CCCNC(=N)N)C(=O)N[C@H](Cc1c[nH]c2ccccc12)C(=O)N[C@H](CCCNC(=N)N)C(=O)N[C@H](CCCCN)C(=O)N[C@@H](C(=O)N[C@H](C)C(=O)N[C@H](CCCNC(=N)N)C(=O)N[C@H](CCCCN)C(=O)N[C@H](Cc1ccccc1)C(=O)N[C@H](CC(C)C)C(=O)N[C@H](CCCNC(=N)N)C(N)=O)C(C)C [Peptide 223, Lauryl-rkrwrkvarkflr-NH2] (Lauroyl-[dR][dK][dR][dW][dR][dK][dV][dA][dR][dK][dF][dL][dR]-NH2) | 4 (≈ 2.02 µM) | 16 (≈ 8.07 µM) | 8 (≈ 4.04 µM) | 32 (≈ 16.1 µM) | 2 (≈ 1.01 µM) | >64 | 4 |
| CCCCCCCCCCCC(=O)N[C@H](CCCNC(=N)N)C(=O)N[C@H](C)C(=O)N[C@H](CCCNC(=N)N)C(=O)N[C@H](Cc1c[nH]c2ccccc12)C(=O)N[C@H](CCCNC(=N)N)C(=O)N[C@H](CC(=O)O)C(=O)N[C@@H](C(=O)N[C@H](C)C(=O)N[C@H](CCCNC(=N)N)C(=O)N[C@H](CC(N)=O)C(=O)N[C@H](Cc1ccccc1)C(=O)N[C@H](CCSC)C(=O)N[C@H](CCCNC(=N)N)C(N)=O)C(C)C [Peptide 237, Lauryl-rarwrdvarnfmr-NH2] (Lauroyl-[dR][dA][dR][dW][dR][dD][dV][dA][dR][dN][dF][dM][dR]-NH2) | 4 (≈ 2.09 µM) | 4 (≈ 2.09 µM) | 8 (≈ 4.18 µM) | 4 (≈ 2.09 µM) | 1 (≈ 0.522 µM) | 16 | 16 |
